Measured values published in US5098613A, “Anti-inflammatory agents” (Eli Lilly and Company, priority 1990, dated 1992).

Key:
[1] = tested on: inflammation created by injecting carrageenin into the hind paws of rats; experiment: Carrageenin Assay; type: in vivo; conditions: Rattus norvegicus, ip, 50 mg/kg i.p., prior to carrageenin injection, read-out: Percent Inhibition (Antiinflammatory Activity in the Carrageenin Assay)
Protocol: The compounds were evaluated for antiinflammatory activity in the test method described by C. A. Winter, Proc. Soc. Exp. Biol. Med., 111, 544 (1962). In this test, inflammation is created by injecting carrageenin into the hind paws of rats. Test compounds are administered prior to injection to determine percent inhibition of the subsequent inflammation in comparison with control animals.

[2] = tested on: Arachidonic Acid Induced Ear Edema; experiment: Arachidonic Acid-Induced Ear Edema Assay; type: in vivo, Female BALB/C mice; conditions: Mus musculus, 1 h; 1% in ethanol gel, topical, one hour prior to arachidonic acid; read-out: Percent Inhibition of Ear Swelling
Protocol: Female BALB/C mice (Charles River; 18-20 rams) were divided into groups of five. Arachidonic acid was dissolved in ethanol at a concentration of 200 mg/ml. Each mouse received 2 mg/ear of arachidonic acid on the inner surface of the right ear. This dose of phlogistic was applied by an automatic pipette in 10 mcl volumes. The left ear (control) received ethanol. Drugs were applied topically in an ethanol-based gel to the entire outer surface of both ears one hour prior to arachidonic acid application. Edema was measured by the increase in ear weight. An hour after arachidonic acid solution or vehicle was applied, an ear sample of 7 mm in diameter was obtained from both ears. Ear edema was calculated by subtracting the […], dividing by the weight of the left/Control ear, and averaging the results for each group of mice according to compound and concentration.

[3] = tested on: IL-1 induced T-cell Proliferation; experiment: Anti IL-1 Activity (Thymocyte Assay): suppression of IL-1 induced T-cell proliferation; type: cell-based, C3H/HeJ male mice; conditions: mouse thymocytes, 48 hours, read-out: Percent T-cell suppression; for inhibition at 1 µg/mL: 1 mcg/ml; for inhibition at 10 µg/mL: 10 mcg/ml
Protocol: Thymus from 3-4 week old C3H/HeJ male mice and were passed through a #100 mesh screen to make a single cell suspension. The cells were suspended in RPMI-1640 supplemented with 2×10^-5 M 2-mercaptoethanol, 3% fetal calf serum, and 1% Penicillin/Streptomycin. The cell suspension was placed in a tissue culture flask and incubated at 37° C. in 5% carbon dioxide in air for 1-2 hours. The thymocytes were decanted, leaving adherent cells behind, and the liquid was centrifuged at 1400 rpm for 10 minutes. After decanting the supernatant, the cells were resuspended and counted with a hemocytometer. The density was adjusted to […]. Fifty μ1 of the suspension were added to each well of a 96-well microtiter plate, followed by the addition of 25 μl of PHA and 25 μl IL-1 (1:25 dilution of a 10 mcg/ml stock solution) per well.
Each compound to be tested was dissolved in 30% DMSO/70% PBS to make a stock solution of 1 mg/ml. Fifteen μl of each compound were added to 300 μl of media in the serial dilution plate. Twenty-five μl of each drug were added to the test plate in quadruplicate wells across the plate. The plate was incubated at 37° C. in 5% carbon dioxide in air for 48 hours. The wells were pulsed with tritiated thymidine (5 μCi.well) for 4 hours before harvesting on a Skatron cell harvester. The filter discs were placed in mini-vials, scintillation fluid (Tol-Pop) was added, and the vials counted. The percent of counts for each vial compared with control samples wherein no compound was added (vehicles only) was determined for each compound and are reported as Table III below as the percent T-ce1 suppression.

[4] = tested on: shock after E. coli LPS and galactosamine (GALN) challenge; experiment: Mouse Endotoxin Shock Assay; type: in vivo, C57BL/6 male mice; conditions: LPS/GALN s.c. challenge, results 48 hours after challenge, Reed Muench Method
Protocol: Compounds were given to 18-20 g C57BL/6 male mice using various regimens depending upon mode of administration. Control animals received corresponding vehicles only. The mice were then challenged with 0.2 ml of chromatographically purified 0111:B4 E. coli LPS and galactosamine hydrochloride (GALN) given subcutaneously (back of the neck). GALN was given at an approximate dose of 500 mg/kg whereas the LPS dose ranged between 0.3-1.2 μg/mouse (15-60 μg/k9). Control animals generally die of shock 7-15 hours after administration of LPS/GALN although a small number (0-5%) may die 24-48 hours after such administration. Calculation of the EDso for each compound was performed using the Reed Muench Method for results obtained 48 hours after challenge.

[5] = molecular target: T1, leukotriene B4 specific receptor on the membrane of human neutrophils (Homo sapiens, UniProt Q15722); experiment: Inhibition of Binding of ^3 H-LTB4 to Peripheral Human Neutrophils; conditions: 4° C., 10 minutes; for inhibition at 10 µM: drug concentration 10^-5 M, read-out: LTB4 Binding Inhibition; for inhibition at 1 µM: drug concentration 10^-6 M
T1 construct: incubating neutrophils (1×10^7 cells) with 0.1-0.2 nM ^3 H-LTB4; endogenous in cells; host or cells: human peripheral blood neutrophils (buffy coats of two blood donors)
Outline: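 Freshly isolated human donor neutrophils (1×10^7 cells) in HBSS/0.1% ovalbumin pH 7.3 were incubated with 0.1-0.2 nM ^3H-LTB4 and compound at 1×10^-5 or 1×10^-6 M for 10 min at 4 °C. Bound ligand was separated by centrifugation through phthalate oil and counted, then corrected for nonspecific binding and compared with compound-free control.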

T1 sequence (Q15722 whole entry): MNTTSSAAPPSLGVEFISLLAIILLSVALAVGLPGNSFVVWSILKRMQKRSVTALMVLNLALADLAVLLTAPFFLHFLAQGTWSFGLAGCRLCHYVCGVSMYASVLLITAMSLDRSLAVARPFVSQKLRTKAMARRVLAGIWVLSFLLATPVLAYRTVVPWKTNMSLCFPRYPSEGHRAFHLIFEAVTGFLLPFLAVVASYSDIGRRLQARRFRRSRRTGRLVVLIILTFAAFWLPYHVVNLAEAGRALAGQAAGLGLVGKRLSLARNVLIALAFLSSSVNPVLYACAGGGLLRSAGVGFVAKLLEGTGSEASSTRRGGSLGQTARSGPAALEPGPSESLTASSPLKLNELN

Structure (SMILES) | inhibition in vivo at 50 mg/kg [1] | inhibition in vivo at 1 % [2] | inhibition at 1 µg/mL [3] | inhibition at 10 µg/mL [3] | ED50 [4] | inhibition at 10 µM [5] | inhibition at 1 µM [5]
CCc1cc(C(C)=O)c(O)cc1OCCCCCC[S+](C)[O-] (centres unmarked) [Example 82, 2-Hydroxy-4-[6-(methylsulfinyl)hexyl-oxy]-5-ethylacetophenone] | 31% | 9% | 21% | 88% | > 50 mg/kg | 91% | 50%
CCc1cc(C(C)=O)c(O)cc1OCCCCCC(C)(C)C#N [Example 68, 4-(6-Cyano-6-methylheptyloxy)-5-ethyl-2-hydroxyacetophenone] | 33% | 46% | 13% | 99% | > 50 mg/kg | 84% | 53%
